{
  "source": "paper PMC11044016",
  "about": "(Journal of the American Chemical Society, 2023)",
  "key": {"[1]": {"conditions": "terminal cytosine of 3TC; stated without experiment, no reference given; cited from earlier work"}, "[2]": {"conditions": "Balb/cJ mice, s.c. 75 mg/kg"}, "[3]": {"system": "HBV", "assay": "Antiviral", "type": "cell-based", "conditions": "Hepatitis B virus, HePAD38, read-out: IC50 (HBV DNA released from cells)"}},
  "data": [
    {"smiles": "Nc1ccn([C@H]2CS[C@@H](CO)O2)c(=O)n1", "note": "[3TC, 2’,3’-Dideoxy-3’-Thiacytidine]", "values": [
      {"measurement": "pKa", "setting": "[1]", "result": "around 7.2"},
      {"measurement": "3TC plasma concentration after day 3", "setting": "[2]", "result": "no drug detectable"},
      {"measurement": "IC50", "setting": "[3]", "result": 170, "unit": "nM"}
    ]}
  ]
}
